“Also recorded” adds a separate entry of the source.
Key:
rat brain extracts = assay: NAP / D-SAL affinity chromatography with rat brain extracts, mass spectrometry; type: binding; details: repeated twice
Protocol: The affinity chromatography column included SulfoLink® Immobilization Kit for Peptides (44999, Thermo Scientific, Rockford, Ill., USA). Binding of […] was performed according to the manufacturers' instruction. Recombinant protein was loaded (2 mg/mL) on the columns (2 mL) and incubated overnight at 4° C.; the columns were then washed with phosphate-buffered saline until all unbound protein was eluted [as confirmed by protein assay (Bradford; Bio-Rad Laboratories, Mannheim, Germany)]. NAP-binding proteins were eluted in IgG Elution buffer (pH 2.8) (Thermo scientific). […] Sodium dodecyl sulfate-polyacrylamide gel electrophoresis (SDS-PAGE) was then performed followed by western blot analysis in order to detect the protein (R. Zamostiano et al., J Biol Chem 276, 708 (Jan. 5, 2001)).
Affinity chromatography was carried out as above with rat brain extracts as before (34, 36). However, several additional experiments were undertaken and mass spectrometry was employed to identify additional potential NAP-interacting proteins that elute from the affinity column.

PC12 cells [1] = assay: PC12 cell survival assay, zinc toxicity, MTS (Example 1); details: for protection against zinc-induced PC12 cell death (MTS) with EB3 silenced: RNA silencing of EB3
Protocol: PC12 cells (Pheochromocytoma cells) (ATCC, Bethesda, Md., USA) were seeded at 3×10^4 cells/cm^2 on poly-L-Lysine coated plastic tissue culture dishes (Corning, Lowell, Mass., USA) to form an adherent monolayer. Cells were maintained in Dulbecco's modified Eagle's medium (DMEM) supplemented with 10% horse serum (HS), 5% fetal calf serum (FCS), 2 mM glutamine, 100 U/ml penicillin and […] streptomycin (Biological Industries, Beit Haemek, Israel). PC12 differentiation was induced by nerve growth factor (NGF, Sigma) at concentrations of 50 ng/ml by replacing half of the medium every other day until the cells acquired a differentiated morphology. Differentiated cells were defined as bearing two or more neurites with lengths equal to or more than twice the diameter of the cell body (P. Lamoureux et al., The Journal of cell biology 110, 71 (January, 1990)). The cells were incubated in 5% CO2 in a humidified incubator at 37° C. The cells were sub-cultured every 5 days at a 4:1 split ratio by pipetting. The medium was changed every 2 or 3 days after adhesion.
Transfections were performed using Lipofectamine RNAiMAX (Invitrogen). Transfection was carried out according to manufacturer's protocol. For rat MAPRE3 knockdown, PC12 cells or neurons were plated in growth medium without antibiotics at concentration of 10^4 cells/0.32 cm^2 such that they will be 30-50% confluent at the time of transfection. To obtain the highest transfection efficiency and low non-specific effects, siRNA transfection was performed in the following optimized conditions: 50 nM for neurons and 25 nM PC12 of each siRNA construct with 0.2 μl Lipofectamine RNAiMAX (Invitrogen) was added per well of the 96-well plate and scaled up for different 24 or 6-well plates, according to the manufacturer's instructions. The medium was changed one day after transfection. 48 and 72 hours later, cells were harvested to assay for gene knockdown at the RNA and protein levels.
The cells were incubated for 4 hrs at 37° C. 5% CO2. Survival was measured using the MTS assay.
Metabolic activity of cells was measured by the CellTiter 96® Aqueous Non-Radioactive Cell Proliferation kit in accordance with the manufacturer's instructions (Promega). The assay uses a colorimetric method for determining the number of viable cells employing a tetrazolium compound [3-(4,5-dimethylthiazol-2-yl)-5-(3-carboxymethoxyphenyl)-2-(4-sulfophenyl)-2H-tetrazolium, MTS] and an electron-coupling reagent, phenazine methosulfate (PMS). MTS is bio-reduced by cells into a formazan product that is detected at 490 nm. The conversion of MTS into the formazan form is accomplished by dehydrogenase enzymes found in metabolically active cells. Thus, the quantity of formazan product as measured by the amount of 490 nm absorbance is directly proportional to the number of living cells in culture (A. H. Cory, T. C. Owen, J. A. Barltrop, J. G. Cory, Cancer Commun 3, 207 (July, 1991)).

primary cortical neurons = assay: PSD-95 density in primary cortical neuron culture; type: cell-based, rat
Protocol: Methods: 1. Primary cultures of neurons were prepared as follows. Newborn rats were sacrificed on postnatal day 1. Cerebral cortex tissue was then dissected and dissociated individually from each pup with the Papain Dissociation System (PDS; Worthington Biochemical Corporation) according to the manufacturer's instructions. 2. Cells were fixed with ice cold methanol, blocked with 2% bovine serum albumin (BSA) and 5% normal goat serum in Tris buffered saline containing tween 20 (TBS-T; 20 mM Tris pH 7.5, 136.8 mM NaCl, and 0.05% v/v Tween 20), and incubated with primary antibody followed by the appropriate secondary antibody. 3. Primary antibodies that were used include: monoclonal anti PSD-95 (ab-2723, Abcam), monoclonal anti Tyr-α-tubulin antibody (YL1/2) (VMA1864, Abcys, Paris, France), polyclonal anti Glu-α-tubulin antibody (L4) (AbC0101, Abcys, Paris, France), DyLight 488-labeled secondary goat anti-mouse IgG, DyLight 633-labeled secondary goat anti-rabbit IgG (KPL, Gaithersburg, Md., USA), Cy3-conjugated secondary goat anti-Rat IgG, (Jackson ImmunoResearch). 4. Images were collected with a Leica SP5 confocal laser scanning microscope (Mannheim, Germany) with 63× oil immersion optics, laser lines at 488, 561, 633 nm. Identical confocal laser scanning microscopy (CLSM) parameters (e.g., scanning line, laser light, gain, and offset etc.) were used for control and NAP treated cells.
For instance, a PSD-95 expression assay using primary cortical neuron cultures established from suitable animals may be performed to confirm a compound's activity in promoting cell plasticity. More specifically, primary cultures of neurons are prepared by first taking cerebral cortex tissue from newborn rats on postnatal day 1. The cerebral cortex tissue is then dissected and dissociated individually from each animal. Cells are fixed with ice cold methanol, blocked (e.g., with bovine serum albumin (BSA) and normal goat serum), and incubated with primary antibody (e.g., monoclonal antibody against PSD-95), optionally followed by the appropriate secondary antibody for imaging purposes. Images of primary neuronal cultures are taken and compared between cultures with or without being exposed to a test compound. An increased PSD-95 expression is indicative of the test compound being capable of promoting or protecting cell plasticity, especially neuronal plasticity.
Cerebral cortex tissue from newborn rats was dissected and dissociated individually from each pup with the Papain Dissociation System (PDS), (Worthington Biochemical Corporation) according to the manufacturer's instructions. Cortical neurons were maintained in Neurobasal medium (NB), (Gibco) supplemented with NeuroCult B27-SM1 ([…]), 1% Glutamax (Gibco), and grown on poly-D-lysine-coated cell culture glass cover slips.
Images were collected with a Leica SP5 confocal laser scanning microscope (Mannheim, Germany) with 63× oil immersion optics, laser lines at 488, 561, 633 nm or with LSM 510 META (Zeiss, Jena, Germany) confocal laser scanning microscope with 63× oil immersion optics, laser lines at 488, 568, 633 nm. When comparing fluorescence intensities, identical CLSM parameters (e.g., scanning line, laser light, gain, and offset etc.) were used. All of the fluorescent signals acquired were above the autofluorescent background as measured from a control slide stained with secondary antibody without a primary antibody. To compare the relative levels of protein expression, the average integrated density (AID) image analysis procedure was used for cell immunostains. In brief, integrated density is defined by the sum of the values of the pixels in the selected region of interest (ROI). This is equivalent to the product of Area and Mean Gray Value. AID for the positive stained area was determined by measuring the fluorescent intensity of the ROI, which is above the positive cut-off intensity. […]

PC12 cells [2] = details: ZnCl2 400 μM, 4 h
Protocol: FIG. 15: Rat pheochromocytoma cells (PC12) were seeded on Poly-D-Lysine coated 96-well tissue culture dishes in high concentration (30,000 cells/well). On the day of the experiment the cells were treated with ZnCl2 (400 μM) either alone or in combination with different concentration of SKIP for 4 h. After 4 h the cell viability was analyzed by MTS assay. […] All values are from one experiment performed in hexplicate.
Rat pheochromocytoma cell (PC12, ATCC, Bethesda, Md., USA) were grown in 10-cm tissue culture dishes (Corning). The base medium for this cell line was RPMI-1640 Medium (Invitrogen) supplemented with 10% heat-inactivated horse serum, 5% fetal bovine serum and solution containing 100 U/ml penicillin together with […] streptomycin (Biological Industries, Beit Haemek, Israel). The cells were incubated in 95% air; 5% CO2 in a humidified incubator at 37° C. The medium was changed every 2 to 3 days. The cells were subcultured when cell density reached 4×10^6 cells/ml. The cells were split in a ratio of 1:4.
On the day before the experiment cells were to be harvested, re-suspended and seeded on tissue culture dishes. For cell viability measurements, cells were seeded on Poly-D-Lysine coated 96-well tissue culture dishes (Sigma-Aldrich) at a concentration of 3×10^4 cells/well.
The cell viability is measured by colorimetric method that determines the number of viable cells in culture. This method is based on the bio-reduction of the tetrazolium compound [3-(4,5-dimethylthiazol-2-yl)-5-(3-carboxymethoxyphenyl)-2-(4-sulfophenyl)-2H-tetrazolium; MTS] by living cells into a colored formazan product. This reaction is occurring in the presence of an electron coupling reagent (phenazine ethosulfate; PES). The amount of formazan product is measured by ELISA plate reader at 490 nm and is directly proportional to the number of living cells in culture (CellTiter 96® AQueous One Solution Cell Proliferation Assay; Promega, Madison, Wis., USA).

PC12 cells [3] = details: previously published data, read-out: EC50 for zinc cell killing effect; cited from earlier work

Structure (SMILES) | interaction with drebrin (affinity column eluate, mass spectrometry) (rat brain extracts) | protection against cell death induced by zinc toxicity (MTS survival) (PC12 cells [1]; 400 μM zinc, 4 hrs, peptide 10^−9M) | protection against cell death induced by zinc toxicity (MTS) (PC12 cells [1]; 400 μM zinc, 4 hrs, peptide 10^−15M) | protection against zinc-induced PC12 cell death (MTS) with EB3 silenced (PC12 cells [1]; 500 microM zinc, NAP 10^−15M) | protection against zinc-induced PC12 cell death (MTS) with EB3 silenced (PC12 cells [1]; 500 microM zinc, NAP 10^−15M, listed as NAPVSIPQ) | protection against zinc-induced PC12 cell death (MTS) (PC12 cells [1]; 500 microM zinc, NAP 10^−15M, control situations (non-specific siRNA, no treatment)) | effect on PSD-95 expression with EB3 silencing (primary cortical neurons; 10^−12M NAP, 48 hours siRNA against EB3) | increase in PSD-95 expression (primary cortical neurons; 10^−12M, 2 hrs, 13 DIV cortical neurons (FIG. 10d)) | PSD-95 expression in dendrites (FIG. 11) (primary cortical neurons; 10^−12M, DIV 13, 2 hours) | density of PSD-95 puncta vs vehicle controls (primary cortical neurons; NAP 10^−18M-10^−9M, DIV 13, 2 hrs) | peak effect on density of PSD-95 over control (primary cortical neurons; NAP concentration of 10-12M, 2 hours) | derivative peptides effect on PSD-95 density vs vehicle controls (FIG. 10c) (primary cortical neurons; neurons treated for 2 hrs) | zinc concentration at which significant cell death was observed (PC12 cells [1]; PC12 cells, 4 hrs, data not shown) | reduction of cell viability by zinc (PC12 cells [1]; vs control without zinc) | cell death from zinc treatment (PC12 cells [2]) | EC50 (PC12 cells [3])
CC[C@H](C)[C@H](NC(=O)[C@H](CO)NC(=O)[C@@H](NC(=O)[C@@H]1CCCN1C(=O)[C@H](C)NC(=O)[C@@H](N)CC(N)=O)C(C)C)C(=O)N1CCC[C@H]1C(=O)N[C@@H](CCC(N)=O)C(=O)O [NAP] | specific interaction | significant protection effect; also recorded: significantly increased survival | significant protection effect | not in the presence of EB3 silencing | does not protect | protected against by NAP treatment; also recorded: protects in the control situations | abolished NAP activity; also recorded: completely inhibited | 75% | enhances PSD-95 expression | significantly increased | 50% | significantly increased | – | – | – | –
[Cl-].[Cl-].[Zn+2] [zinc, ZnCl2] | – | – | – | – | – | – | – | – | – | – | – | – | > 200 µM | ~25% | ~20% | 308 ± 38 µM
